From US9737535B2, “Methods for treating cancer using TOR kinase inhibitor combination therapy comprising administering substituted pyrazino[2,3-b]pyrazines” (Signal Pharmaceuticals, LLC, priority 2014, dated 2017) come the findings set out here.

Where a name gives a salt, the structure may show the parent alone.

Holding throughout (assay): Anti-proliferation assay (ATPLite), Chalice synergy score
Common to all, as to type: cell-based

In experiment [1] the test system is HCC-1187. Details: scale not given here. The conditions noted are these: Compound 1 in combination with the named second active agent, 72 h, mean of n = 3 experiments in triplicate. The source says:
(§1) Cells were thawed from a liquid nitrogen preserved state.
(§2) The calculation for synergy score is provided below.
(§3) If T≧V0:100*[1−(T−V0)/(V−V0)]

Experiment [2] has as its system BT-20. Details: scale not given here. The conditions noted are these: Compound 1 in combination with the named second active agent, 72 h, mean of n = 3 experiments in triplicate.
Text: as §1, §2, §3

Experiment [3] has as its system HCC-1500. Details: scale not given here. The following applies: Compound 1 in combination with the named second active agent, 72 h, mean of n = 3 experiments in triplicate.
Text: as §1, §2, §3

In experiment [4] the test system is BT-549. The following applies: Compound 1 in combination with the named second active agent, 72 h, mean of n = 3 experiments in triplicate.
Text: as §1, §2, §3

The subject of experiment [5] is HCC70. The following applies: Compound 1 in combination with second active agent; HCC-70; mean self-cross + 2σ threshold 3.45.
Text: as §1, §2, §3

Experiment [6] relates to HCC-1428. The conditions noted are these: Compound 1 in combination with the named second active agent, 72 h, mean of n = 3 experiments in triplicate.
Text: as §1, §2, §3

Experiment [7] deals with MCF7. The following applies: Compound 1 in combination with second active agent, mean self-cross + 2σ threshold 3.07.
Text: as §1, §2, §3

Experiment [8] relates to Hs-578-T. The conditions noted are these: Compound 1 in combination with second active agent, mean self-cross + 2σ threshold 4.09.
Text: as §1, §2, §3

Experiment [9] deals with HCC-1937. The following applies: Compound 1 in combination with the named second active agent, 72 h, mean of n = 3 experiments in triplicate.
Text: as §1, §2, §3

For experiment [10], the system named is HCC-1806. The following applies: Compound 1 in combination with the named second active agent, 72 h, mean of n = 3 experiments in triplicate.
Text: as §1, §2, §3

Experiment [11] has as its system BT-474. The following applies: Compound 1 in combination with the named second active agent, 72 h, mean of n = 3 experiments in triplicate.
Text: as §1, §2, §3

For experiment [12], the system named is MDA-MB-468. The conditions noted are these: Compound 1 in combination with second active agent, mean self-cross + 2σ threshold 4.66.
Text: as §1, §2, §3

In experiment [13] the test system is MDA-MB-157. The following applies: Compound 1 in combination with second active agent, mean self-cross + 2σ threshold 4.68.
Text: as §1, §2, §3

Experiment [14] concerns MDA-MB-231. The conditions noted are these: Compound 1 in combination with second active agent, mean self-cross + 2σ threshold 2.61.
Text: as §1, §2, §3

Experiment [15] has as its system MDA-MB-436. The conditions noted are these: Compound 1 in combination with second active agent, mean self-cross + 2σ threshold 1.91.
Text: as §1, §2, §3

For `NS(=O)(=O)OC[C@@H]1C[C@@H](n2ccc3c(N[C@H]4CCc5ccccc54)ncnc32)C[C@@H]1O` [MLN-4924], the Synergy score stood at 7.09 in experiment [1]; 1.78 in experiment [2]; 1.31 in experiment [3]; 2.83 in experiment [4]; 0.46 in [5]; 3.68 in [6]. For the same compound, the Synergy score is on record as 0.94 in experiment [7]; 3.55 in experiment [8]; 9.15 in experiment [9]; 2.90 in experiment [10]; 8.59 in [11]; 15.10 in experiment [12]. In addition, in [13], the Synergy score was determined as 6.73.
As for `O=C(NC(NC(=S)Nc1ccc(F)c([N+](=O)[O-])c1)C(Cl)(Cl)Cl)C(c1ccccc1)c1ccccc1` (centres unmarked) [CGK733], the Synergy score in experiment [1] is given as 2.01; in [2], 0.72; in experiment [3] it was 0.55; in [14], 1.64; in [4], 1.74; in [5], 3.03. For the same compound, the Synergy score is recorded as 0.82 in experiment [6]; 0.66 in experiment [7]; 2.45 in experiment [8]; 1.48 in experiment [9]; 0.84 in experiment [15]; 1.51 in experiment [10]. Besides, the Synergy score in experiment [13] came to 1.88.
With `Nc1ccccc1NC(=O)c1ccc(CNC(=O)OCc2cccnc2)cc1` [MS-275], the Synergy score in experiment [14] is reported as 11.70; in experiment [5], 9.37; in experiment [7] it was 7.69; in experiment [8] it was 8.44; in experiment [15] it was 7.83; in [12], 9.25. Besides, in [13], the Synergy score is listed as 8.10.
As to `CC[C@@H]1C(=O)N(C)c2cnc(Nc3ccc(C(=O)NC4CCN(C)CC4)cc3OC)nc2N1C1CCCC1` [BI 2536], the Synergy score in experiment [1] was 3.28; in experiment [2] it was 5.18; in experiment [3], 4.47; in experiment [14] it was 2.92; in [4], 6.91; in experiment [5] it was 12.60. For the same compound, the Synergy score in experiment [7] is 3.30; in experiment [8], 4.48; in experiment [9], 16.20; in [15], 2.95; in [10] it was 0.43; in experiment [11] it was 9.25. Moreover, the Synergy score is 9.61 in [12] and 5.08 in experiment [13].
With `C[C@@H](Oc1cc(-c2cnn(C3CCNCC3)c2)cnc1N)c1c(Cl)ccc(F)c1Cl` [Crizotinib], the Synergy score in [1] was 2.32; in [2] it was 2.70; in experiment [4], 0.94; in experiment [5] it was 3.31; in experiment [7], 3.06; in [9], 2.90. Moreover, the Synergy score in [15] is listed as 1.30; in [10], 3.08; in [11], 1.07; in [13], 2.97.
Turning to `O=C(/C=C/c1cccc(S(=O)(=O)Nc2ccccc2)c1)NO` [Belinostat], the Synergy score in experiment [14] is given as 12.40; in experiment [5], 10.10; in [7] it was 7.66; in experiment [8] it was 7.48; in experiment [15], 7.84; in [12] it was 6.75. Moreover, the Synergy score in experiment [13] is listed as 7.58.
As to `Nc1ccn([C@@H]2O[C@H](CO)[C@@H](O)C2(F)F)c(=O)n1` [Gemcitabine Hydrochloride], the Synergy score in experiment [1] was found to be 1.83; in [2], 1.85; in experiment [3], 3.72; in experiment [14], 2.51; in experiment [4], 1.86; in experiment [7] it was 0.38. Besides, the Synergy score in experiment [8] came to 0.96; in [9] it was 3.78; in experiment [15], 3.05; in [10] it was 0.84; in [11], 0.17; in experiment [12] it was 5.52. Also, the Synergy score in experiment [13] worked out at 2.53.
For `COc1cccc2c1C(=O)c1c(O)c3c(c(O)c1C2=O)C[C@@](O)(C(=O)CO)C[C@@H]3O[C@H]1C[C@H](N)[C@H](O)[C@H](C)O1` [Doxorubicin Hcl, Doxorubicin HCl], the Synergy score in experiment [1] turned out to be 4.45; in experiment [2], 3.96; in [3] it was 2.70; in experiment [4], 4.78; in [5], 4.00; in experiment [6] it was 0.96. For the same compound, the Synergy score is 5.85 in experiment [8]; 6.92 in experiment [9]; 3.89 in [15]; 3.55 in experiment [10]; 1.25 in experiment [11]; 6.36 in [12]. The Synergy score in experiment [13] is on record as 8.50.
In the case of `C/C=C1\NC(=O)[C@H]2CSSCC/C=C/[C@H](CC(=O)N[C@H](C(C)C)C(=O)N2)OC(=O)[C@H](C(C)C)NC1=O` [Romidepsin], the Synergy score in experiment [14] turned out to be 9.27; in experiment [5] it was 6.74; in experiment [15], 5.84; in [12] it was 7.26; in experiment [13], 5.71.
For the compound `CC1=C(C(=O)Nc2cc3cn[nH]c3cc2F)C(c2ccc(C(F)(F)F)cc2)CC(=O)N1` (centres unmarked) [GSK429286A], the Synergy score in experiment [1] was found to be 4.54; in experiment [3], 0.19; in experiment [14] it was 2.14; in experiment [4], 1.72; in experiment [7], 0.19; in experiment [8] it was 3.35. For the same compound, the Synergy score was determined as 0.05 in experiment [9]; 0.57 in [15]; 0.51 in experiment [10]; 0.13 in experiment [12]; 1.95 in experiment [13].
Turning to `N#Cc1c(O)c2c(-c3ccc(-c4ccccc4O)cc3)csc2[nH]c1=O` [Compound A769662], the Synergy score in experiment [1] is reported as 3.70; in [2], 0.11; in [3], 0.80; in experiment [14], 0.17; in experiment [4], 0.29; in [5], 0.07. Besides, the Synergy score in [6] is given as 0.34; in experiment [7], 0.46; in experiment [8], 0.39; in experiment [9] it was 0.07; in experiment [15], 0.06; in experiment [10], 0.54. For the same compound, the Synergy score in experiment [12] is 0.77; in experiment [13], 0.70.
`CCN(CCO)CCCOc1ccc2c(Nc3cc(CC(=O)Nc4cccc(F)c4)[nH]n3)ncnc2c1` [AZD1152-HQPA (Barasertib)]: the Synergy score in experiment [1] is recorded as 6.69; in [2], 6.90; in experiment [3], 5.73; in experiment [6], 1.95; in experiment [9] it was 2.29; in [10] it was 1.32. Further, the Synergy score in experiment [11] came out at 1.51.
In the case of `CCN(CCO)CCCOc1ccc2c(Nc3cc(CC(=O)Nc4cccc(F)c4)[nH]n3)ncnc2c1` [AZD1152-HQPA(Barasertib)], the Synergy score in [14] is on record as 1.42; in [5], 9.50; in experiment [7], 2.57; in experiment [8], 2.43; in experiment [15], 5.60; in [12], 9.13. Besides, the Synergy score in experiment [13] is 1.81.
Turning to `CNC(=O)c1cc(Oc2ccc(NC(=O)Nc3ccc(Cl)c(C(F)(F)F)c3)cc2)ccn1` [Sorafenib], the Synergy score in experiment [2] worked out at 1.16; in experiment [3], 0.69; in [14] it was 1.55; in [4], 0.00; in [5] it was 2.51; in experiment [7], 1.18. Moreover, the Synergy score in experiment [8] is given as 1.65; in experiment [9] it was 2.10; in experiment [11], 2.32; in [13] it was 0.56.
With `C[C@@H]1CN(CC(=O)Nc2ccc3c(c2)Cc2cccc(-c4cc(=O)cc(N5CCOCC5)o4)c2S3)C[C@H](C)O1` [KU-60019], the Synergy score in [1] is listed as 1.24; in experiment [2], 0.05; in experiment [3] it was 0.98; in experiment [14], 0.08; in experiment [4], 0.18; in experiment [5], 0.21. Further, the Synergy score in [6] is given as 0.11; in [7] it was 0.04; in [8], 0.11; in experiment [9], 0.04; in experiment [15], 0.13; in experiment [10] it was 0.38. Besides, the Synergy score in [12] is on record as 0.19; in experiment [13], 0.13.
